Bridge positions count the residues as written; N and C are the ends. Square brackets hold non-standard residues; d marks the D form. Peptide text beside a SMILES is read from it.
Legend:
human neutrophils [1] = assay: Ca-ionophore stimulated neutrophils, citrullinated H3 immunostaining and confocal microscopy / immunoblot; format: cell-based; settings: 50 µM peptide, pre-incubated 60 min, 5 µM Ca-Ionophore
Description: (§1) Peripheral venous blood was isolated from consenting healthy adult volunteers in heparin tubes as previously described. Briefly, blood samples were on Histopaque 1119 (Sigma-Aldrich) and then centrifuged for 20 min at 800 × g. The plasma was collected and centrifuged for a second time for 20 min at 800 × g. The neutrophil layer was collected and washed in Hyclone Hank’s Balanced Salt Solution (HBSS) -Ca, -Mg, -Phenol red (GE Healthcare) supplemented with 10 mM HEPES (Invitrogen) 0.1% FBS and further purified with a discontinuous Percoll (GE Healthcare) gradient consisting of layers with densities of 85, 80, 75, 70 and 65% and centrifuged for 20 min at 800 × g. Neutrophil-enriched layers were then collected and washed, and neutrophil purity was assessed using flow cytometry.
About 5 × 10^4 sorted neutrophils were seeded in 24-well cell culture plates containing glass coverslips in HyClone HBSS +Ca, +Mg, - Phenol red (GE Healthcare) supplemented with 10 mM HEPES (Invitrogen). Neutrophils were stimulated with 5 µM Ca-Ionophore (Sigma) and fixed for 20 min at room temperature with 2% paraformaldehyde at RT. Cells were then washed and permeabilized with 0.5% Triton X-100 in PBS. Non-specific binding was blocked with 2% BSA (Sigma) and 2% donkey serum (Sigma) in PBS. Samples were stained with DAPI (Life Technologies), the rabbit anti-CitH3 (Abcam; ab5103 1:500) and donkey anti-rabbit alexa488 (Invitrogen; A21206). Fluorescence imaging was performed on a Leica TCS SP8 inverted confocal microscope using sequential scan in between frames mode with a 20x objective.
Neutrophil samples were boiled in a sodium dodecyl sulphate (SDS) buffer containing dithiothreitol (DTT) and run on a polyacrylamide gel electrophoresis (SDS-PAGE) using Criterion TGX precast gels (Any-KD; Bio-Rad Laboratories). Proteins were then transferred to a PVDF membrane (Bio-Rad Laboratories) via semi-dry transfer. The membrane was blocked with 5% BSA (Fisher Scientific) in Tris-buffered saline with 0.1% Tween-20 (TBS-T). Levels of citrullinated histone H3, total H3 and myeloperoxidase (MPO) were assessed by incubating membranes in either anti-histone H3 citrulline R2 + R8 + R17 (Abcam; ab5103 1:1000), anti-histone H3 (Millipore; 07-690 1:10000) or anti-MPO (DAKO; A0398 1:2500) overnight at 4 °C, respectively. For cell lysate-based assays and pull-down assays, membranes were incubated as above with anti-hPADI4 (Abcam; ab50332; 1:1000 in 5% BSA/TBS-T), anti-Bcr (Cell Signalling #3902S; 1:1000 in 3% milk/TBS-T) and anti-Impdh2 (Cell Signalling #57068S; 1:1000 in 3% milk/TBS-T). Membranes were washed in 0.1% TBS-T and subsequently incubated with goat anti-rabbit HRP or anti-goat (Fisher Scientific) for 1 h, followed by final washes in 0.1% TBS-T. Membranes were imaged with enhanced chemiluminescent substrate (ECL) (Thermo Fisher) on a Bio-Rad imager.

human neutrophils [2] = assay: Cholesterol crystal stimulation and NET preparation, immunoblot of citrullinated histone H3; format: cell-based; settings: 50 µM peptide pre-incubated 1 h, 1 mg/ml cholesterol crystals
Description: as §1
About 1 × 10^6 human blood neutrophils were isolated as described in the “Human neutrophils from peripheral blood healthy donors” section. Neutrophils were seeded in 6 well plates in HBSS +Ca, +Mg, -Phenol red (GE Healthcare) containing 10 mM HEPES (Invitrogen), left to settle for 30 min, then pre-incubated with either 50 μM PADI4_3, PADI4_3i or DMSO (0.5%) for 1 h. […] NET DNA concentration was determined by Quant-iT Picogreen dsDNA reagent as per the manufacturer’s instructions (Thermo Fisher Scientific). […]

Bio-hPADI4 wt = molecular target: T1, Bio-hPADI4 wt (Homo sapiens, UniProt Q9UM07); assay: Surface plasmon resonance (SPR), single cycle kinetics, peptide binding to immobilised PADI4
T1 construct: PADI4 (residues 1–663); Avi-Tag (biotinylated by BirA); made in house; host or cells: E. coli BL21-DE3 co-expressing BirA
T1 sequence (Q9UM07 whole entry, the tested form may be a part): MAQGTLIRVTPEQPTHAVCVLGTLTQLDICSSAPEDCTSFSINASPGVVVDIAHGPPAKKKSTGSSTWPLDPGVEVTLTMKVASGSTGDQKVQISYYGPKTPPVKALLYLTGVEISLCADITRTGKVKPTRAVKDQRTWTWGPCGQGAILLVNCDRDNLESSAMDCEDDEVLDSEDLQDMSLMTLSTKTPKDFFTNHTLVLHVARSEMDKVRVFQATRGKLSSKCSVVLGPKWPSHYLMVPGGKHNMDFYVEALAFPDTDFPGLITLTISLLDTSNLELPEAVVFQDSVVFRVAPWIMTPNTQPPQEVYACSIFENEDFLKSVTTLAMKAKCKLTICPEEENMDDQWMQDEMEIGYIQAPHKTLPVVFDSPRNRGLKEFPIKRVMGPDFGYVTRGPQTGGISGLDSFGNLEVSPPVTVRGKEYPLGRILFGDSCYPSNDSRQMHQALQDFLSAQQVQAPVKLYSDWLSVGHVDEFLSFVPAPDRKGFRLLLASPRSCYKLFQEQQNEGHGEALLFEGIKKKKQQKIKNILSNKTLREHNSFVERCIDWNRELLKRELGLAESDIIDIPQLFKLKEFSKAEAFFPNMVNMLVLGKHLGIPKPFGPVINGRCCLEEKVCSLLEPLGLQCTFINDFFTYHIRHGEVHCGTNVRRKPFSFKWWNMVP
Description: Single cycle kinetics analysis by SPR was carried out using a Biacore T200 or S200 and a Biotin CAPture kit, series S (Cytiva). […] 50 mM HEPES (pH 7.5), 150 mM NaCl, 2 mM DTT, 0.05 % Tween-20, 0.1% DMSO and variable CaCl2 (as specified) was used as the running buffer and experiments performed at 25 °C.
Samples were run with 120 s contact time, and variable dissociation time (often 360 s). Data were analysed using the Biacore T200 analysis software; data was fitted to a 1:1 binding model accounting for baseline drift where necessary. Data are presented as the average ± standard deviation of at least two independent replicates.

Structure (SMILES): N=C(N)NCCC[C@@H]1NC(=O)[C@H](CC(=O)O)NC(=O)[C@@H](Cc2ccc(O)cc2)NC(=O)CSC[C@@H](C(=O)NCC(N)=O)NC(=O)[C@H](Cc2ccc(O)cc2)NC(=O)[C@H](CCCCN)NC(=O)[C@@H]2CCCN2C(=O)[C@H](Cc2c[nH]cn2)NC(=O)[C@H](CCCNC(=N)N)NC(=O)[C@H](Cc2ccc(O)cc2)NC(=O)[C@H](Cc2c[nH]cn2)NC(=O)[C@H](Cc2c[nH]cn2)NC1=O [PADI4_3i] ({CH2CO}-[dY]DRHHYRHPKYCG-NH2; thioether N-12)
- H3Cit levels in neutrophils treated with calcium ionophore (human neutrophils [1]): neither response was affected
- citrullination of histone 3 in NET preparations (human neutrophils [2]): abolished by PADI4_3 but not PADI4_3i
- binding to PADI4 (in words) (Bio-hPADI4 wt): did not bind

Reference: publication PMC11555231 (Nature Communications, 2024)
